# “And” between values parts separate entries of the source, which are not always exact repeats. Equal entries are not always repeated. Toxic doses and inconclusive results are not listed.
# Tested on: L1210 leukemia ip in BDF1 mice, survival T/C
# Experiment: NCI In Vivo Anticancer Drug Screen. Data for tumor model L1210 Leukemia (intraperitoneal) in B6D2F1 (BDF1) mice
# Details: endpoint: mean survival time, higher = longer survival
# In short: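 Read-out is survival time, reported as the treated-group measurement over the vehicle-control measurement.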
# [1] = dose: 100.0 mg/kg/injection, schedule: Q04DX003 (ip), vehicle: saline with Tween-80
# [2] = dose: 200.0 mg/kg/injection, schedule: Q04DX003 (ip), vehicle: saline with Tween-80
# [3] = dose: 400.0 mg/kg/injection, schedule: Q04DX003 (ip), vehicle: saline with Tween-80
# [4] = dose: 200.0 mg/kg/injection, schedule: Q01DX009 (ip), vehicle: saline with Tween-80
# [5] = dose: 400.0 mg/kg/injection, schedule: Q01DX009 (ip), vehicle: saline with Tween-80
# [6] = dose: 100.0 mg/kg/injection, schedule: Q04DX002 (ip), vehicle: Klucel (hydroxypropylcellulose) (HPC)
# [7] = dose: 200.0 mg/kg/injection, schedule: Q04DX002 (ip), vehicle: Klucel (hydroxypropylcellulose) (HPC)
# [8] = dose: 400.0 mg/kg/injection, schedule: Q04DX002 (ip), vehicle: Klucel (hydroxypropylcellulose) (HPC)
# [9] = dose: 50.0 mg/kg/injection, schedule: Q01DX001 (ip), vehicle: carboxymethylcellulose (CMC)
# [10] = dose: 100.0 mg/kg/injection, schedule: Q01DX001 (ip), vehicle: carboxymethylcellulose (CMC)
# [11] = dose: 400.0 mg/kg/injection, schedule: Q01DX001 (ip), vehicle: carboxymethylcellulose (CMC)
structure (smiles),measurement,setting,value
COc1ccc(CC2COC(O)C2Cc2ccc(OC3OC(CO)C(O)C(O)C3O)c(OC)c2)cc1OC (centres undefined),T/C,"dose: 100.0 mg/kg/injection, schedule: Q04DX002 (ip), vehicle: saline",102 % of control
same,T/C,"dose: 200.0 mg/kg/injection, schedule: Q04DX002 (ip), vehicle: saline",112 % of control
same,T/C,"dose: 400.0 mg/kg/injection, schedule: Q04DX002 (ip), vehicle: saline",87 % of control
CN1CCS(=O)(=O)C1=O,T/C,"dose: 9.5 mg/kg/injection, schedule: Q01DX001 (ip), vehicle: saline",98 % of control
same,T/C,"dose: 19.0 mg/kg/injection, schedule: Q01DX001 (ip), vehicle: saline",98 % of control
same,T/C,"dose: 38.0 mg/kg/injection, schedule: Q01DX001 (ip), vehicle: saline",109 % of control
C=CCN(CC=C)P(=O)(N1CC1C)N1CC1C (centres undefined),T/C,"dose: 1.0 mg/kg/injection, schedule: Q01DX009 (ip), vehicle: saline",124 % of control
same,T/C,"dose: 3.0 mg/kg/injection, schedule: Q01DX009 (ip), vehicle: saline",172 % of control
CC(=O)Nc1nc(Cl)c2ncn(C3CC(OC(=O)c4ccc(C)cc4)C(COC(=O)c4ccc(C)cc4)O3)c2n1 (centres undefined),T/C,"dose: 100.0 mg/kg/injection, schedule: Q01DX005 (ip), vehicle: saline",109 % of control and 114 % of control
same,T/C,"dose: 100.0 mg/kg/injection, schedule: Q01DX009 (ip), vehicle: saline",102 % of control
same,T/C,"dose: 200.0 mg/kg/injection, schedule: Q01DX005 (ip), vehicle: saline",103 % of control and 104 % of control
same,T/C,"dose: 200.0 mg/kg/injection, schedule: Q01DX009 (ip), vehicle: saline",102 % of control
same,T/C,"dose: 400.0 mg/kg/injection, schedule: Q01DX009 (ip), vehicle: saline",107 % of control
ClCCC[S][Pb]([c]1ccccc1)([c]1ccccc1)[c]1ccccc1,T/C,"dose: 25.0 mg/kg/injection, schedule: Q04DX002 (sc), vehicle: olive oil, sesame oil, peanut oil",100 % of control
same,T/C,"dose: 50.0 mg/kg/injection, schedule: Q04DX002 (sc), vehicle: olive oil, sesame oil, peanut oil",116 % of control
O=C1c2ccccc2C(=O)N1C/C=C/Cl,T/C,[1],104 % of control
same,T/C,[2],108 % of control
same,T/C,[3],101 % of control
O=C(O)C1CCCC1C(=O)O (centres undefined),T/C,"dose: 75.0 mg/kg/injection, schedule: Q04DX003 (ip), vehicle: saline",94 % of control
same,T/C,"dose: 150.0 mg/kg/injection, schedule: Q04DX003 (ip), vehicle: saline",102 % of control
same,T/C,"dose: 300.0 mg/kg/injection, schedule: Q04DX003 (ip), vehicle: saline",95 % of control
Nc1ncnc(N)c1NC(=O)CCCCc1ccccc1,T/C,"dose: 100.0 mg/kg/injection, schedule: Q04DX003 (ip), vehicle: saline",100 % of control
same,T/C,"dose: 200.0 mg/kg/injection, schedule: Q04DX003 (ip), vehicle: saline",92 % of control
same,T/C,"dose: 400.0 mg/kg/injection, schedule: Q04DX003 (ip), vehicle: saline",100 % of control
c1ccc2c(c1)Cc1cc3ccccc3nc1-2,T/C,[1],106 % of control
same,T/C,[4],98 % of control
same,T/C,[2],93 % of control
same,T/C,[5],90 % of control
same,T/C,[3],98 % of control
O=C(Nc1cccc2ccccc12)c1cccc([N+](=O)[O-])c1C(=O)O,T/C,[6],99 % of control
same,T/C,[7],92 % of control
same,T/C,[8],96 % of control
CC(=N\NC(N)=S)/C(=N/NC(N)=S)c1ccccc1,T/C,"dose: 15.0 mg/kg/injection, schedule: Q01DX Z (ip), vehicle: carboxymethylcellulose (CMC)",107 % of control
same,T/C,"dose: 30.0 mg/kg/injection, schedule: Q01DX Z (ip), vehicle: carboxymethylcellulose (CMC)",97 % of control
same,T/C,"dose: 60.0 mg/kg/injection, schedule: Q01DX Z (ip), vehicle: carboxymethylcellulose (CMC)",95 % of control and 90 % of control
same,T/C,"dose: 120.0 mg/kg/injection, schedule: Q01DX Z (ip), vehicle: carboxymethylcellulose (CMC)",93 % of control and 91 % of control
same,T/C,"dose: 120.0 mg/kg/injection, schedule: Q01DX Z (oral), vehicle: carboxymethylcellulose (CMC)",110 % of control
same,T/C,"dose: 240.0 mg/kg/injection, schedule: Q01DX Z (oral), vehicle: carboxymethylcellulose (CMC)",100 % of control
same,T/C,"dose: 480.0 mg/kg/injection, schedule: Q01DX Z (ip), vehicle: carboxymethylcellulose (CMC)",88 % of control
same,T/C,"dose: 480.0 mg/kg/injection, schedule: Q01DX Z (oral), vehicle: carboxymethylcellulose (CMC)",115 % of control
same,T/C,"dose: 960.0 mg/kg/injection, schedule: Q01DX Z (oral), vehicle: carboxymethylcellulose (CMC)",104 % of control
O=NN(CCCl)C(=O)Nc1ccc(C(=O)O)cc1,T/C,"dose: 1.5 mg/kg/injection, schedule: Q01DX Z (ip), vehicle: saline",171 % of control
same,T/C,"dose: 2.0 mg/kg/injection, schedule: Q01DX Z (ip), vehicle: saline",162 % of control
same,T/C,"dose: 2.5 mg/kg/injection, schedule: Q01DX001 (ip), vehicle: carboxymethylcellulose (CMC)",118 % of control and 124 % of control
same,T/C,"dose: 3.75 mg/kg/injection, schedule: Q## X001 (ip), vehicle: carboxymethylcellulose (CMC)",106 % of control
same,T/C,"dose: 4.5 mg/kg/injection, schedule: Q01DX Z (ip), vehicle: carboxymethylcellulose (CMC)",151 % of control
same,T/C,"dose: 5.0 mg/kg/injection, schedule: Q01DX001 (ip), vehicle: carboxymethylcellulose (CMC)",153 % of control and 182 % of control
same,T/C,"dose: 9.0 mg/kg/injection, schedule: Q01DX Z (ip), vehicle: carboxymethylcellulose (CMC)",117 % of control
same,T/C,"dose: 15.0 mg/kg/injection, schedule: Q01DX001 (ip), vehicle: carboxymethylcellulose (CMC)",151 % of control and 168 % of control and 190 % of control
same,T/C,"dose: 15.0 mg/kg/injection, schedule: Q## X001 (ip), vehicle: carboxymethylcellulose (CMC)",152 % of control
same,T/C,"dose: 20.0 mg/kg/injection, schedule: Q01DX001 (ip), vehicle: carboxymethylcellulose (CMC)",152 % of control
same,T/C,"dose: 30.0 mg/kg/injection, schedule: Q01DX001 (ip), vehicle: carboxymethylcellulose (CMC)",218 % of control and 227 % of control
same,T/C,"dose: 30.0 mg/kg/injection, schedule: Q## X001 (ip), vehicle: carboxymethylcellulose (CMC)",191 % of control
c1cc[c]([Bi]([c]2ccccc2)[c]2ccccc2)cc1,T/C,"dose: 50.0 mg/kg/injection, schedule: Q01DX001 (ip), vehicle: other",95 % of control
same,T/C,"dose: 100.0 mg/kg/injection, schedule: Q01DX001 (ip), vehicle: other",97 % of control
same,T/C,[1],97 % of control
same,T/C,"dose: 200.0 mg/kg/injection, schedule: Q01DX001 (ip), vehicle: other",97 % of control
same,T/C,[2],102 % of control
same,T/C,"dose: 400.0 mg/kg/injection, schedule: Q01DX001 (ip), vehicle: other",97 % of control
same,T/C,[3],103 % of control
CC(C)(C)c1cc(C#N)cc(Br)c1O,T/C,"dose: 25.0 mg/kg/injection, schedule: Q04DX002 (ip), vehicle: saline with Tween-80",102 % of control
same,T/C,"dose: 50.0 mg/kg/injection, schedule: Q04DX002 (ip), vehicle: saline with Tween-80",97 % of control
same,T/C,"dose: 100.0 mg/kg/injection, schedule: Q04DX002 (ip), vehicle: saline with Tween-80",97 % of control and 102 % of control
O=C(O)C1CCC(C(=O)O)CC1 (centres undefined),T/C,[9],101 % of control
same,T/C,[10],88 % of control
same,T/C,[11],98 % of control
Cc1ccc(S(=O)(=O)c2ccc(C)cc2)cc1,T/C,[9],96 % of control
same,T/C,[10],111 % of control
same,T/C,"dose: 200.0 mg/kg/injection, schedule: Q01DX001 (ip), vehicle: carboxymethylcellulose (CMC)",100 % of control
same,T/C,[11],105 % of control
CSC1=NCCCC1,T/C,"dose: 75.0 mg/kg/injection, schedule: Q01DX001 (ip), vehicle: saline",105 % of control
same,T/C,"dose: 150.0 mg/kg/injection, schedule: Q01DX001 (ip), vehicle: saline",104 % of control
OC(O)C(F)(F)F,T/C,"dose: 100.0 mg/kg/injection, schedule: Q01DX009 (ip), vehicle: saline with Tween-80",109 % of control
same,T/C,[1],111 % of control
same,T/C,[4],121 % of control
same,T/C,[2],104 % of control
same,T/C,[5],97 % of control
same,T/C,[3],105 % of control
Cc1cccc(C)c1OC(=O)Nc1ccccc1Cl,T/C,[6],95 % of control
same,T/C,[7],106 % of control
same,T/C,[8],103 % of control
COc1cc(/C=N/NC(=O)N/N=C/c2cc(OC)c(OC)c(OC)c2)cc(OC)c1OC,T/C,"dose: 100.0 mg/kg/injection, schedule: Q04DX003 (ip), vehicle: Klucel (hydroxypropylcellulose) (HPC)",105 % of control
same,T/C,"dose: 200.0 mg/kg/injection, schedule: Q04DX003 (ip), vehicle: Klucel (hydroxypropylcellulose) (HPC)",105 % of control
same,T/C,"dose: 400.0 mg/kg/injection, schedule: Q04DX003 (ip), vehicle: Klucel (hydroxypropylcellulose) (HPC)",108 % of control

# Source: PubChem BioAssay AID248 (DTP/NCI, 2004)
